From patent US20220228124A1, “Three-Dimensional Cross-Linked Scaffolds Of Peripheral Blood Plasma And Their Use” (SANFORD HEALTH, priority 2019, published 2022)

Legend:
[1] = system: three breast cancer (BCa) cell lines; test: 3DeTME drug screening, relative cell count and GR values; assay type: cell-based, human; details: day 7; for response among the BCa cell lines: 3DeTME, 0.1 nM-300 μM
Experimental: (§1) Methods: Three breast cancer (BCa) cell lines were previously labeled with DiD and incorporated in 3DeTME. Half a day after plating, cells were treated with a DMSO control (γCtrl) and increasing concentrations 0.1 nM-300 μM of seven standard-of-care chemotherapeutic drugs including Methotrexate (MTX), Paclitaxel (PTX), Capecitabine (CAP), Cyclophosphamide Monohydrate (CYCLO), Carboplatin (CARBO), Epirubicin Hydrochloride (EPI), and Docetaxel (DTX). Treatments were added on top of 3DeTME in order to simulate drug diffusion into a tumor. Treatments were refreshed at day 4 and BCa cells were retrieved from the different cultures for analysis at day 0.5 (γ0) and day 7. Samples were prepared in PBS for flow cytometry by adding counting beads (424902, Biolegend, CA) in addition to SytoxTM green dead cell stain (excitation 504 nm, emission 523 nm) ([…], Thermo Fisher Scientific, MA) for viability to each sample. BCa cells were identified by gating live cells with a DiD+ signal using the FL4 channel on BD AccuriTM C6 instrument (CFlow Software) (BD Biosciences). A minimum of 5×103 events was acquired per sample and BCa cell counts were acquired and data was analyzed using the FlowJoTM v10 (Ashland, Oreg.) software. Relative cell count and Growth rate (GR) values. The GR values show the partial inhibition effect of the drug when it achieves GR values from 0 to 1, with the cytostatic effect being represented when the value is equal to 0 and the cytotoxic effect being represented when it lies between 0 and -1.

MCF7 = test: as above; assay type: cell-based, human; details: 0.1 nM-300 μM, day 7
MDA-MB-231 = test: as above; assay type: cell-based, human; details: 0.1 nM-300 μM, day 7
Experimental: as §1

[2] = system: fibrinogen found naturally in plasma; test: Cross-linking time of plasma into 3DeTME matrix; assay type: biochemical, human
Experimental: (§2) Methods: 3DeTME cultures are formed through the cross-linking of fibrinogen found naturally in plasma. Cross-linking time was assessed by measuring the time necessary to achieve matrix cross-linking using three relevant cross-linkers of the blood coagulation process including Thrombin (0-5 mg/ml), CaCl2 (0-5 mg/ml), and Factor XIII (0-6 mg/ml). The stabilization effects of preventing fibrin degradation and stability improvement in the scaffold was assessed by surveying several chemical antifibrinolytic agents including tranexamic acid (AMCHA) (0-10 mg/ml), Aprotinin ([…]), epsilon-aminocaproic acid (EACA) (0-2.5 mg/ml), and 4-aminomethylbenzoic acid (PAMBA) (0-2.5 mg/ml). The stability of the scaffold was studied by measuring each scaffold weight at day 0 and again measuring scaffold weight at the conclusion of a 3 week time period. 3DeTME culture scaffold structure and morphology was analyzed with scanning electron microscopy (SEM) using a FEI Quanta™ 450 Scanning Electron Microscope at multiple magnifications. The stiffness of the scaffolds was measured by atomic force microscopy (AFM). The Young's modulus was estimated by fitting a modified Hertz model onto the AFM indentation curve using the built in function of AFM software (Asylum Research). Plasma from cancer patients and healthy subjects was analyzed for fibrinogen content through the clotting method of Clauss. The Clauss fibrinogen assay is a quantitative, clot-based, functional assay. The assay measures the ability of fibrinogen to form fibrin clot after being exposed to a high concentration of purified thrombin. Briefly, plasma samples were loaded into the STA-R™ Evolution Expert Series Hemostasis System (Diagnostica Stago Inc., Parsippany, N.J.) and automated testing was carried out by the analyzer. […] 3DeTME culture supernatants were collected and analyzed by a C-Series Custom Cytokine Antibody Array (RayBiotech Inc., Norcross, Ga.) according to the instructions provided by the manufacturer. […] The chemiluminescence signal intensity of each spot was quantified by densitometric analysis (VisionWorks Software). […]

[3] = system: CD8+ T cell infiltration (PD-L1 blockade); test: CD8+ T cell infiltration into 3DeTME matrices seeded with BCa cells; assay type: cell-based, human; details: 3DeTME tumorous (1.5% O2); 5 μM for the first 4 days; read at day 7
Experimental: Methods: 3DeTME cultures were grown with cancer cells for 4 days, while being exposed to variable O2 environments (21% and 1.5% O2). Peripheral blood mononuclear cells (PBMCs) were incorporated at day 4 as a cell suspension in the medium added on the top of the matrix, while being exposed to the same O2 environment up to day 7, (FIG. 5A). Oxygen partial pressure (pO2) levels were measured in BCa cell-seeded 3DeTME matrices incubated under variable O2 environments (21% and 1.5% O2) after 0, 2, 4 and 7 days of culture. 3DeTME scaffolds containing BCa cells were profiled along the z-direction with an oxygen microsensor (Needle-Type Oxygen Microsensor NTH-PSt7, PreSens, Regensburg, Germany) and a manual micromanipulator (FIG. 5B). Briefly, to record oxygen pressure, the sensor was introduced into the geometric center (3 measure points) of the 3DeTME and moved from the border between the media and 3DeTME (top) in 10 μm steps towards the bottom of the well plate, as illustrated in FIG. 5C. […]
Methods: Differences in lymphocyte infiltration into 3DeTME scaffolds as a result of different oxygen content were assessed. PBMCs were incorporated as cell suspension in the medium added on the top of the matrix at day 4 and analyzed at day 7. […] Mean absolute numbers of CD3+, CD4+, CD8+ and CD19+ cells (normalized to beads) were determined in each experimental group. […]

[4] = system: EpCAM+ BCa cells from patient biopsies; test: Survival of primary patient BCa cells in matched-plasma 3DeTME cultures; assay type: cell-based, human; details: 7 days
Experimental: Methods: To evaluate the association between different variables, correlation tests were performed using the ggpubr R™ package. The Pearson correlation (r) was assessed in order to measure the linear dependence between two variables after confirmation of a normal distribution of the data. In order to assess the predictive value of the drug response metrics obtained in the 3DeTME assays with cell lines, we compared them with metric data obtained from literature relevant for 2D models (IC50) and other 3D models (IC50), as well as effective concentrations in patients from phase I or II studies that examined the pharmacokinetics of the tested chemotherapies (steady state concentration, Css). A scatterplot correlation graph allowed us to establish the strength, direction and form of the relationship between the in vitro models and the Css clinical data, with Pearson correlation coefficients (r) that were calculated to measure the strength of those relationships. […] Small organoids and single cells cultures were grown and analyzed at days 0.5 (γ0), 3, and 7. […] BCa cell counts were acquired and data was analyzed using FlowJo™ v10 (Ashland, Oreg.). Data was normalized to a predetermined number of counting beads, the proliferation of each condition (fold of γ0) and survival (% of control) was calculated and compared.

[5] = system: fibrin degradation in the scaffold; test: 3DeTME scaffold integrity and stability (weight) with antifibrinolytic agents; parameters: species or system human
Experimental: as §2

[6] = 5 and 10 mg/ml, weight at day 24 vs day 0

In the case of `CN(Cc1cnc2nc(N)nc(N)c2n1)c1ccc(C(=O)N[C@@H](CCC(=O)O)C(=O)O)cc1` [methotrexate, Methotrexate], the “response among the BCa cell lines” value [1] is reported as “heterogeneous response” and the “sensitivity of the cell line relative to the other BCa cell lines” value (MCF7) is reported as “most resistant”.

With `N.N.O=C([O-])C1(C(=O)[O-])CCC1.[Pt+2]` [carboplatin, Carboplatin] the “sensitivity of the cell line relative to the other BCa cell lines” value (MDA-MB-231) was “most sensitive” and the “response among the BCa cell lines” value [1] was “heterogeneous response”.

For “Factor XIII: cross-linker of the blood coagulation process, required activation by calcium”, the “cross-linking time (fastest)” value ([2]; cross-linker at 6 mg/ml, activated by incorporating calcium) was “over 40 min”.

`CCCCCOC(=O)Nc1nc(=O)n([C@@H]2O[C@H](C)[C@@H](O)[C@H]2O)cc1F` [capecitabine, Capecitabine] was tested, and the “type of drug effect (GR value)” value ([1]; over the concentrations tested) was “cytostatic”.

In the case of “Durvalumab: selective, high-affinity human IgG1 mAb that blocks programmed cell death ligand-1 (PD-L1) binding to PD-1”, the CD8 infiltration [3] is reported as “did reverse CD8 infiltration”.

`CC(C)(C#N)c1cc(Cn2cncn2)cc(C(C)(C)C#N)c1` [Arimidex] was tested, and the activity at 45 µM ([4]; Homo sapiens, 168 h, "responder" patient, read-out: survival of BCa cells (% of control)) was 17% and the “survival of BCa cells” value ([4]; patient with "resistance" clinical outcome, 45 μM) was “little to no effect”.

For `[Ca+2].[Cl-].[Cl-]` [CaCl2, calcium chloride], the “cross-linking time (fastest)” value ([2]; cross-linker at 1 mg/ml) was 4 min.

In the case of `NCCCCCC(=O)O` [epsilon-aminocaproic acid], the integrity benefit ([5]; at the concentrations tested (0-2.5 mg/ml), day 24 vs day 0) is reported as “not able to sustain an integrity benefit”.

In the case of `NC[C@H]1CC[C@H](C(=O)O)CC1` [tranexamic acid, trans-4-(aminomethyl)cyclohexanecarboxylic acid], the “weight gain as share of total weight” value [5, 6] is reported as “around 10%” and the “weight gain of 3D culture” value [5, 6] is reported as “about 24 mg”.

Work on thrombin yielded a cross-linking time ([2]; cross-linker at 5 mg/ml) of 5 min.
